Laboratory results from paper PMC8963254, “Effects of Lysine N-ζ-Methylation in Ultrashort Tetrabasic Lipopeptides (UTBLPs) on the Potentiation of Rifampicin, Novobiocin, and Niclosamide in Gram-Negative Bacteria” (Antibiotics, 2022).
Converted amounts (≈) assume the structure as drawn. Like-named read-outs stand apart in the source and are kept apart here.

Key:
A. baumannii ATCC 17978 [1] = format: cell-based, Acinetobacter baumannii; conditions: ATCC 17978, 18 h
Summary of the method: (§1)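 Turbidity at 590 nm defined growth, from which the MIC was taken. Cultures at a final density of 5 × 10^5 CFU/mL were exposed to a range of compound levels at 37 °C for 18 h in a CLSI-based microdilution format.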

E. coli ATCC 25922 [2] = format: cell-based, Escherichia coli; conditions: ATCC 25922, 18 h
Summary of the method: as §1

E. faecalis ATCC 29212 = format: cell-based, Enterococcus faecalis; conditions: ATCC 29212, 18 h
Summary of the method: as §1

E. faecium ATCC 27270 = format: cell-based, Enterococcus faecium; conditions: ATCC 27270, 18 h
Summary of the method: as §1

[3] = system: P. aeruginosa PA259-96196; assay: microbe, parasite or virus in culture; format: cell-based, Pseudomonas aeruginosa; conditions: PA259-96196, 18 h
Summary of the method: as §1

[4] = system: P. aeruginosa PA262-101856; assay: microbe, parasite or virus in culture; format: cell-based, Pseudomonas aeruginosa; conditions: PA262-101856, 18 h
Summary of the method: as §1

MRSE 61589 [5] = format: cell-based, Staphylococcus epidermidis; conditions: 61589, 18 h
Summary of the method: as §1

MSSE 81388 [6] = format: cell-based, Staphylococcus epidermidis; conditions: 18 h
Summary of the method: as §1

A. baumannii 92247 = format: cell-based, Acinetobacter baumannii; conditions: for MICUTBLP: UTBLP alone
Summary of the method: (§2)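 Checkerboard synergy assay: antibiotic and OMP combined at varying concentrations with 5 × 10^5 CFU/mL inoculum (final), 37 °C, 18 h; growth read as turbidity at 590 nm. FICI = sum of FICs (MIC in combination / MIC alone); ≤0.5 synergistic, 0.5–4 additive, >4 antagonistic.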

A. baumannii AB027 = format: cell-based, Acinetobacter baumannii; conditions: for MICUTBLP: UTBLP alone
Summary of the method: as §2

A. baumannii ATCC 17978 [7] = format: cell-based, Acinetobacter baumannii; conditions: for MICUTBLP: UTBLP alone
Summary of the method: as §2

E. coli 94393 = format: cell-based, Escherichia coli; conditions: for MICUTBLP: UTBLP alone
Summary of the method: as §2

E. coli 94474 = format: cell-based, Escherichia coli; conditions: for MICUTBLP: UTBLP alone
Summary of the method: as §2

E. coli ATCC 25922 [8] = format: cell-based, Escherichia coli; conditions: for MICUTBLP: UTBLP alone
Summary of the method: as §2

K. pneumoniae 113250 = format: cell-based, Klebsiella pneumoniae; conditions: for MICUTBLP: UTBLP alone
Summary of the method: as §2

MRSE 61589 [9] = format: cell-based, Staphylococcus epidermidis
Summary of the method: as §2

MSSE 81388 [10] = format: cell-based, Staphylococcus epidermidis
Summary of the method: as §2

[11] = UTBLP in combination with novobiocin
[12] = UTBLP in combination with rifampicin
[13] = novobiocin in combination with the UTBLP
[14] = rifampicin in combination with the UTBLP
[15] = UTBLP in combination with chloramphenicol
[16] = UTBLP in combination with niclosamide
[17] = chloramphenicol in combination with the UTBLP
[18] = niclosamide in combination with the UTBLP
[19] = UTBLP alone, plate with chloramphenicol

Work on CCCCCCCC(=O)N[C@@H](CCCCN)C(=O)NCCCN(CCCNC(=O)[C@H](CCCCN)NC(=O)CCCCCCC)CC(=O)N[C@@H](CCCCN)C(N)=O [UTBLP 1] yielded an MIC (A. baumannii ATCC 17978 [1]) of over 128 mg/L, an MIC (E. coli ATCC 25922 [2]) of over 128 mg/L and an MIC (E. faecalis ATCC 29212) of 128 mg/L (≈ 155 µM). For the same molecule, the MIC (E. faecium ATCC 27270) was 64 mg/L (≈ 77.6 µM), the MIC [3] was over 128 mg/L and the MIC [4] was 128 mg/L (≈ 155 µM). The MIC (MRSE 61589 [5]) was 32 mg/L (≈ 38.8 µM), the MIC (MSSE 81388 [6]) was 32 mg/L (≈ 38.8 µM) and the Interpretation (A. baumannii 92247; UTBLP + novobiocin) was “Synergy (FICI ≤ 0.5 is synergistic)”. For the same molecule, the Interpretation (A. baumannii 92247; UTBLP + rifampicin) was “Synergy (FICI ≤ 0.5 is synergistic)”, the MICUTBLP (A. baumannii 92247; plate with novobiocin) was 64 µg/mL and the MICUTBLP (A. baumannii 92247; plate with rifampicin) was 64 µg/mL. The “MICUTBLP [MICcombo]” value (A. baumannii 92247; [11]) was 4 µg/mL, the “MICUTBLP [MICcombo]” value (A. baumannii 92247; [12]) was 4 µg/mL and the “MICantibiotic [MICcombo]” value (A. baumannii 92247; [13]) was 0.25 µg/mL. For the same molecule, the “MICantibiotic [MICcombo]” value (A. baumannii 92247; [14]) was 0.125 µg/mL, the Interpretation (A. baumannii AB027; UTBLP + novobiocin) was “Synergy (FICI ≤ 0.5 is synergistic)” and the Interpretation (A. baumannii AB027; UTBLP + rifampicin) was “Synergy (FICI ≤ 0.5 is synergistic)”. For the same molecule, the MICUTBLP (A. baumannii AB027; plate with novobiocin) was 128 µg/mL, the MICUTBLP (A. baumannii AB027; plate with rifampicin) was 128 µg/mL and the “MICUTBLP [MICcombo]” value (A. baumannii AB027; [11]) was 8 µg/mL. For the same molecule, the “MICUTBLP [MICcombo]” value (A. baumannii AB027; [12]) was 8 µg/mL, the “MICantibiotic [MICcombo]” value (A. baumannii AB027; [13]) was 0.125 µg/mL and the “MICantibiotic [MICcombo]” value (A. baumannii AB027; [14]) was 0.063 µg/mL. The Interpretation (A. baumannii ATCC 17978 [7]; UTBLP + chloramphenicol) was “Additive (0.5 < x ≤ 4 is additive)”, the Interpretation (A. baumannii ATCC 17978 [7]; UTBLP + niclosamide) was “Synergy (FICI ≤ 0.5 is synergistic)” and the Interpretation (A. baumannii ATCC 17978 [7]; UTBLP + novobiocin) was “Synergy (FICI ≤ 0.5 is synergistic)”. The Interpretation (A. baumannii ATCC 17978 [7]; UTBLP + rifampicin) was “Synergy (FICI ≤ 0.5 is synergistic)”, the MICUTBLP (A. baumannii ATCC 17978 [7]; plate with chloramphenicol) was over 128 µg/mL and the MICUTBLP (A. baumannii ATCC 17978 [7]; plate with niclosamide) was over 128 µg/mL. The MICUTBLP (A. baumannii ATCC 17978 [7]; plate with novobiocin) was over 128 µg/mL, the MICUTBLP (A. baumannii ATCC 17978 [7]; plate with rifampicin) was over 128 µg/mL and the “MICUTBLP [MICcombo]” value (A. baumannii ATCC 17978 [7]; [15]) was 32 µg/mL. The “MICUTBLP [MICcombo]” value (A. baumannii ATCC 17978 [7]; [16]) was 8 µg/mL, the “MICUTBLP [MICcombo]” value (A. baumannii ATCC 17978 [7]; [11]) was 16 µg/mL and the “MICUTBLP [MICcombo]” value (A. baumannii ATCC 17978 [7]; [12]) was 8 µg/mL. The “MICantibiotic [MICcombo]” value (A. baumannii ATCC 17978 [7]; [17]) was 32 µg/mL, the “MICantibiotic [MICcombo]” value (A. baumannii ATCC 17978 [7]; [18]) was 0.5 µg/mL and the “MICantibiotic [MICcombo]” value (A. baumannii ATCC 17978 [7]; [13]) was 0.125 µg/mL. The “MICantibiotic [MICcombo]” value (A. baumannii ATCC 17978 [7]; [14]) was 0.125 µg/mL, the Interpretation (E. coli 94393; UTBLP + novobiocin) was “Synergy (FICI ≤ 0.5 is synergistic)” and the Interpretation (E. coli 94393; UTBLP + rifampicin) was “Synergy (FICI ≤ 0.5 is synergistic)”. The MICUTBLP (E. coli 94393; plate with novobiocin) was over 128 µg/mL, the MICUTBLP (E. coli 94393; plate with rifampicin) was over 128 µg/mL and the “MICUTBLP [MICcombo]” value (E. coli 94393; [11]) was 8 µg/mL. The “MICUTBLP [MICcombo]” value (E. coli 94393; [12]) was 8 µg/mL, the “MICantibiotic [MICcombo]” value (E. coli 94393; [13]) was 0.5 µg/mL and the “MICantibiotic [MICcombo]” value (E. coli 94393; [14]) was 0.031 µg/mL. The Interpretation (E. coli 94474; UTBLP + novobiocin) was “Synergy (FICI ≤ 0.5 is synergistic)”, the Interpretation (E. coli 94474; UTBLP + rifampicin) was “Synergy (FICI ≤ 0.5 is synergistic)” and the MICUTBLP (E. coli 94474; plate with novobiocin) was over 128 µg/mL. The MICUTBLP (E. coli 94474; plate with rifampicin) was over 128 µg/mL, the “MICUTBLP [MICcombo]” value (E. coli 94474; [11]) was 8 µg/mL and the “MICUTBLP [MICcombo]” value (E. coli 94474; [12]) was 8 µg/mL. For the same molecule, the “MICantibiotic [MICcombo]” value (E. coli 94474; [13]) was 4 µg/mL, the “MICantibiotic [MICcombo]” value (E. coli 94474; [14]) was 0.125 µg/mL and the Interpretation (E. coli ATCC 25922 [8]; UTBLP + chloramphenicol) was “Synergy (FICI ≤ 0.5 is synergistic)”. The Interpretation (E. coli ATCC 25922 [8]; UTBLP + niclosamide) was “Synergy (FICI ≤ 0.5 is synergistic)”, the Interpretation (E. coli ATCC 25922 [8]; UTBLP + novobiocin) was “Synergy (FICI ≤ 0.5 is synergistic)” and the Interpretation (E. coli ATCC 25922 [8]; UTBLP + rifampicin) was “Synergy (FICI ≤ 0.5 is synergistic)”. For the same molecule, the MICUTBLP (E. coli ATCC 25922 [8]; plate with chloramphenicol) was over 128 µg/mL, the MICUTBLP (E. coli ATCC 25922 [8]; plate with niclosamide) was over 128 µg/mL and the MICUTBLP (E. coli ATCC 25922 [8]; plate with novobiocin) was over 128 µg/mL. For the same molecule, the MICUTBLP (E. coli ATCC 25922 [8]; plate with rifampicin) was over 128 µg/mL, the “MICUTBLP [MICcombo]” value (E. coli ATCC 25922 [8]; [15]) was 32 µg/mL and the “MICUTBLP [MICcombo]” value (E. coli ATCC 25922 [8]; [16]) was 8 µg/mL. The “MICUTBLP [MICcombo]” value (E. coli ATCC 25922 [8]; [11]) was 8 µg/mL, the “MICUTBLP [MICcombo]” value (E. coli ATCC 25922 [8]; [12]) was 8 µg/mL and the “MICantibiotic [MICcombo]” value (E. coli ATCC 25922 [8]; [17]) was 1 µg/mL. The “MICantibiotic [MICcombo]” value (E. coli ATCC 25922 [8]; [18]) was 0.5 µg/mL, the “MICantibiotic [MICcombo]” value (E. coli ATCC 25922 [8]; [13]) was 0.25 µg/mL and the “MICantibiotic [MICcombo]” value (E. coli ATCC 25922 [8]; [14]) was 0.125 µg/mL. The Interpretation (K. pneumoniae 113250; UTBLP + novobiocin) was “Synergy (FICI ≤ 0.5 is synergistic)”, the Interpretation (K. pneumoniae 113250; UTBLP + rifampicin) was “Synergy (FICI ≤ 0.5 is synergistic)” and the MICUTBLP (K. pneumoniae 113250; plate with novobiocin) was over 128 µg/mL. For the same molecule, the MICUTBLP (K. pneumoniae 113250; plate with rifampicin) was over 128 µg/mL, the “MICUTBLP [MICcombo]” value (K. pneumoniae 113250; [11]) was 8 µg/mL and the “MICUTBLP [MICcombo]” value (K. pneumoniae 113250; [12]) was 16 µg/mL. The “MICantibiotic [MICcombo]” value (K. pneumoniae 113250; [13]) was 16 µg/mL, the “MICantibiotic [MICcombo]” value (K. pneumoniae 113250; [14]) was 0.5 µg/mL and the Interpretation (MRSE 61589 [9]; UTBLP + chloramphenicol) was “Additive (0.5 < x ≤ 4 is additive)”. The MICUTBLP (MRSE 61589 [9]; [19]) was 32 µg/mL, the “MICUTBLP [MICcombo]” value (MRSE 61589 [9]; [15]) was 16 µg/mL and the “MICchloramphenicol [MICcombo]” value (MRSE 61589 [9]; [17]) was 2 µg/mL. The Interpretation (MSSE 81388 [10]; UTBLP + chloramphenicol) was “Additive (0.5 < x ≤ 4 is additive)”, the MICUTBLP (MSSE 81388 [10]; [19]) was 32 µg/mL and the “MICUTBLP [MICcombo]” value (MSSE 81388 [10]; [15]) was 0.25 µg/mL. For the same molecule, the “MICchloramphenicol [MICcombo]” value (MSSE 81388 [10]; [17]) was 4 µg/mL.
